Experiment [1] has as its system HL-60. Kind of experiment: Induction of necrosis in intact human HL60 cells assessed as cytosolic LDH release at 50 uM. It is filed as functional, cell-based. A general note: LDH in the medium is a marker of cell lysis.
The subject of experiment [2] is HL-60. The experiment can be described thus: Induction of necrosis in intact human HL60 cells assessed as cytosolic LDH release at 1 uM. The class given is functional, cell-based.
Experiment [3] has as its system HL-60. Kind of experiment: Induction of apoptosis in human HL60 cells assessed as dead cells level at 100 nM annexin V-PE and 7-AAD staining based by flow cytometry (reference value: 0.4%). The class given is functional. (A flow cytometer gives signals particle by particle.)
Experiment [4] deals with HL-60. Kind of experiment: Induction of apoptosis in human HL60 cells assessed as late apoptosis cells level at 100 nM annexin V-PE and 7-AAD staining based by flow cytometry (reference value: 0.4%). The class given is functional.
Experiment [5] has as its system HL-60. Kind of experiment: Induction of apoptosis in human HL60 cells assessed as intact cells level at 100 nM annexin V-PE and 7-AAD staining based by flow cytometry (reference value: 80.7%). It is filed as functional.
Experiment [6] deals with HL-60. The experiment can be described thus: Induction of apoptosis in human HL60 cells assessed as early apoptotic cells level at 100 nM annexin V-PE and 7-AAD staining based by flow cytometry (reference value: 18.5%). It is filed as functional.
In experiment [7] the test system is HL-60. Kind of experiment: Induction of cell cycle arrest in human HL60 cells assessed as accumulation at G0/G1 phase at 50 nM after 48 hrs by propidium iodide staining based flow cytometry (reference value: 42.9%). The class given is functional.
Experiment [8] relates to HL-60. The experiment can be described thus: Induction of cell cycle arrest in human HL60 cells assessed as accumulation at S phase at 50 nM after 48 hrs by propidium iodide staining based flow cytometry (reference value: 45%). It is filed as functional.
The subject of experiment [9] is HL-60. The experiment can be described thus: Induction of cell cycle arrest in human HL60 cells assessed as accumulation at G2/M phase at 50 nM after 48 hrs by propidium iodide staining based flow cytometry (reference value: 11.6%). It is filed as functional.
Experiment [10] has as its system HL-60. The experiment can be described thus: Induction of cell cycle arrest in human HL60 cells assessed as accumulation at subG1 phase at 50 nM after 48 hrs by propidium iodide staining based flow cytometry (reference value: 0.5%). It is filed as functional.
A further experiment has as its system KB. Kind of experiment: Growth inhibition of human KB cells at 10 uM after 72 hrs by MTS assay. It is filed as functional. The note with it: read-out: GI.
A short description of experiment [11]: Growth inhibition of human HCT116 cells at 10 uM after 72 hrs by MTS assay. It is filed as functional. Conditions: HCT-116, 72 h, read-out: GI. Background: Tetrazolium dyes change colour on reduction, which living cells bring about.
The subject of another experiment is MCF7. Kind of experiment: Growth inhibition of human MCF7 cells at 10 uM after 72 hrs by MTS assay. The class given is functional. The note with it: MCF7, 72 h, read-out: GI.
Experiment [12] is described as follows: Growth inhibition of human HL60 cells at 10 uM after 72 hrs by MTS assay. It is filed as functional. Conditions: HL-60, 72 h, read-out: GI.
Experiment [13] can be described thus: Growth inhibition of human MCF7/R cells at 10 uM after 72 hrs by MTS assay. The note with it: MCF7R, read-out: GI. It is filed as functional.
A short description of experiment [14]: Growth inhibition of drug resistant human HL60 cells at 10 uM after 72 hrs by MTS assay. It is filed as functional. Conditions: HL-60, 72 h, read-out: GI.
Experiment [15] is described as follows: Growth inhibition of human PC3 cells at 10 uM after 72 hrs by MTS assay. It is filed as functional. Conditions: PC-3, 72 h, read-out: GI.
In another experiment the test system is SK-OV-3. Kind of experiment: Growth inhibition of human SKOV3 cells at 10 uM after 72 hrs by MTS assay. Conditions: SK-OV-3, 72 h, read-out: GI. The class given is functional.
Experiment [16] concerns HL-60. The experiment can be described thus: Induction of necrosis in human HL60 cells assessed as total LDH activity at 2 to 10 uM. The class given is functional, cell-based.
Experiment [17] concerns HL-60. Kind of experiment: Induction of necrosis in intact human HL60 cells assessed as cytosolic LDH release at 2 to 10 uM. The class given is functional, cell-based.
Experiment [18] has as its system HL-60. Kind of experiment: Induction of apoptosis in human HL60 cells assessed as dead cells level at 2 uM annexin V-PE and 7-AAD staining based by flow cytometry (reference value: 0.4%). It is filed as functional.
In experiment [19] the test system is HL-60. Kind of experiment: Induction of apoptosis in human HL60 cells assessed as dead cells level at 5 uM annexin V-PE and 7-AAD staining based by flow cytometry (reference value: 0.4%). The class given is functional.
Experiment [20] relates to HL-60. The experiment can be described thus: Induction of apoptosis in human HL60 cells assessed as dead cells level at 10 uM annexin V-PE and 7-AAD staining based by flow cytometry (reference value: 0.4%). It is filed as functional.
Experiment [21] deals with HL-60. Kind of experiment: Induction of apoptosis in human HL60 cells assessed as late apoptosis cells level at 2 uM annexin V-PE and 7-AAD staining based by flow cytometry (reference value: 0.4%). The class given is functional.
In experiment [22] the test system is HL-60. The experiment can be described thus: Induction of apoptosis in human HL60 cells assessed as late apoptosis cells level at 5 uM annexin V-PE and 7-AAD staining based by flow cytometry (reference value: 0.4%). The class given is functional.
The test system of experiment [23] is HL-60. Kind of experiment: Induction of apoptosis in human HL60 cells assessed as late apoptosis cells level at 10 uM annexin V-PE and 7-AAD staining based by flow cytometry (reference value: 0.4%). It is filed as functional.
Experiment [24] relates to HL-60. The experiment can be described thus: Induction of apoptosis in human HL60 cells assessed as intact cells level at 2 uM annexin V-PE and 7-AAD staining based by flow cytometry (reference value: 80.7%). It is filed as functional.
The subject of experiment [25] is HL-60. Kind of experiment: Induction of apoptosis in human HL60 cells assessed as intact cells level at 5 uM annexin V-PE and 7-AAD staining based by flow cytometry (reference value: 80.7%). It is filed as functional.
For experiment [26], the system named is HL-60. The experiment can be described thus: Induction of apoptosis in human HL60 cells assessed as intact cells level at 10 uM annexin V-PE and 7-AAD staining based by flow cytometry (reference value: 80.7%). The class given is functional.
Experiment [27] concerns HL-60. The experiment can be described thus: Induction of apoptosis in human HL60 cells assessed as early apoptotic cells level at 2 uM annexin V-PE and 7-AAD staining based by flow cytometry (reference value: 18.5%). It is filed as functional.
Experiment [28] relates to HL-60. Kind of experiment: Induction of apoptosis in human HL60 cells assessed as early apoptotic cells level at 5 uM annexin V-PE and 7-AAD staining based by flow cytometry (reference value: 18.5%). The class given is functional.
Experiment [29] concerns HL-60. Kind of experiment: Induction of apoptosis in human HL60 cells assessed as early apoptotic cells level at 10 uM annexin V-PE and 7-AAD staining based by flow cytometry (reference value: 18.5%). It is filed as functional.
For experiment [30], the system named is HL-60. Kind of experiment: Induction of apoptosis in human HL60 cells assessed as caspase-3 activation at 5 uM after 24 to 48 hrs by DEVD-AMC substrate based fluorescence assay. It is filed as functional, cell-based.
The test system of experiment [31] is HL-60. Kind of experiment: Induction of cell cycle arrest in human HL60 cells assessed as accumulation at G0/G1 phase at 2 uM after 48 hrs by propidium iodide staining based flow cytometry (reference value: 42.9%). It is filed as functional.
For experiment [32], the system named is HL-60. The experiment can be described thus: Induction of cell cycle arrest in human HL60 cells assessed as accumulation at S phase at 2 uM after 48 hrs by propidium iodide staining based flow cytometry (reference value: 45%). The class given is functional.
Experiment [33] relates to HL-60. The experiment can be described thus: Induction of cell cycle arrest in human HL60 cells assessed as accumulation at G2/M phase at 2 uM after 48 hrs by propidium iodide staining based flow cytometry (reference value: 11.6%). The class given is functional.
Experiment [34] concerns HL-60. The experiment can be described thus: Induction of cell cycle arrest in human HL60 cells assessed as accumulation at subG1 phase at 2 uM after 48 hrs by propidium iodide staining based flow cytometry (reference value: 0.5%). It is filed as functional.
Experiment [35] concerns HL-60. Kind of experiment: Induction of cell cycle arrest in human HL60 cells assessed as accumulation at G0/G1 phase at 5 uM after 48 hrs by propidium iodide staining based flow cytometry (reference value: 42.9%). The class given is functional.
The test system of experiment [36] is HL-60. The experiment can be described thus: Induction of cell cycle arrest in human HL60 cells assessed as accumulation at S phase at 5 uM after 48 hrs by propidium iodide staining based flow cytometry (reference value: 45%). It is filed as functional.
In experiment [37] the test system is HL-60. Kind of experiment: Induction of cell cycle arrest in human HL60 cells assessed as accumulation at G2/M phase at 5 uM after 48 hrs by propidium iodide staining based flow cytometry (reference value: 11.6%). The class given is functional.
For experiment [38], the system named is HL-60. Kind of experiment: Induction of cell cycle arrest in human HL60 cells assessed as accumulation at subG1 phase at 5 uM after 48 hrs by propidium iodide staining based flow cytometry (reference value: 0.5%). The class given is functional.
The subject of experiment [39] is HL-60. The experiment can be described thus: Induction of cell cycle arrest in human HL60 cells assessed as accumulation at G0/G1 phase at 10 uM after 48 hrs by propidium iodide staining based flow cytometry (reference value: 42.9%). The class given is functional.
The test system of experiment [40] is HL-60. Kind of experiment: Induction of cell cycle arrest in human HL60 cells assessed as accumulation at S phase at 10 uM after 48 hrs by propidium iodide staining based flow cytometry (reference value: 45%). It is filed as functional.
The subject of experiment [41] is HL-60. The experiment can be described thus: Induction of cell cycle arrest in human HL60 cells assessed as accumulation at G2/M phase at 10 uM after 48 hrs by propidium iodide staining based flow cytometry (reference value: 11.6%). It is filed as functional.
The test system of experiment [42] is HL-60. Kind of experiment: Induction of cell cycle arrest in human HL60 cells assessed as accumulation at subG1 phase at 10 uM after 48 hrs by propidium iodide staining based flow cytometry (reference value: 0.5%). It is filed as functional.

Activity calls are given as the source filed them. The rule behind the calls is not given here.

Consider `CC1=CC(=O)c2ccccc2C1=O`, for which the result in the experiment with HL-60 [1] was Active.
`COc1cccc2c1C(=O)c1c(O)c3c(c(O)c1C2=O)C[C@@](O)(C(=O)CO)C[C@@H]3O[C@H]1C[C@H](N)[C@H](O)[C@H](C)O1` [DOXORUBICIN]: in the experiment on HL-60 [2], the outcome was inactive. Also, the Activity with HL-60 [3] amounted to 0.5%; in the experiment with HL-60 [4], 3.15%; in the experiment with HL-60 [5] it was 14.7%; in the experiment with HL-60 [6], 81.65%; in the experiment with HL-60 [7] it was 23%; in the experiment with HL-60 [8], 32.5%. The Activity is 40% in the experiment with HL-60 [9] and 4.5% in the experiment with HL-60 [10].
For `COC(=O)C1(Cc2ccc(OC)cc2)CC(=O)OC1(C)c1ccccc1` (stereo not drawn), the inhibition of growth at 10 µM stood at 95% in the experiment on KB; 61% in [11]; 56% with MCF7; 82% in experiment [12]; 82% in experiment [13]; 92% in [14]. Also, the inhibition of growth at 10 µM in experiment [15] came to 68%; with SK-OV-3, 76%. Besides, the outcome in the experiment with HL-60 [16] and with HL-60 [30] was Active. Moreover, in the experiment with HL-60 [17], the outcome was inactive. Further, the Activity in the experiment on HL-60 [18] came to 0.35%; with HL-60 [19], 0.9%; in the experiment with HL-60 [20] it was 1.65%; with HL-60 [21], 0.65%; in the experiment with HL-60 [22], 2.2%; in the experiment with HL-60 [23] it was 4.25%. Also, the Activity turned out to be 61.45% with HL-60 [24]; 50.55% in the experiment on HL-60 [25]; 40.7% with HL-60 [26]; 37.65% in the experiment with HL-60 [27]; 46.4% with HL-60 [28]; 53.35% in the experiment with HL-60 [29]. In addition, the Activity is reported as 36.3% with HL-60 [31]; 24% in the experiment on HL-60 [32]; 25.6% in the experiment with HL-60 [33]; 14.1% in the experiment with HL-60 [34]; 23.4% with HL-60 [35]; 25.6% in the experiment with HL-60 [36]. Also, the Activity is 12.2% with HL-60 [37]; 38.9% in the experiment on HL-60 [38]; 19.5% in the experiment with HL-60 [39]; 29.7% in the experiment on HL-60 [40]; 13.1% in the experiment on HL-60 [41]; 37.7% in the experiment on HL-60 [42].
Regarding `COC(=O)C1(Cc2ccc(OC)cc2)CC(=O)OC1(c1ccccc1)C(F)(F)F` (stereo not drawn), the inhibition of growth at 10 µM stood at 56% with KB, 20% in experiment [11], 8% with MCF7 and 64% in experiment [12].
Take `COC(=O)C1(Cc2ccc(OC)cc2)CC(=O)OC1(C)c1cc(OC)c(OC)c(OC)c1` (stereo not drawn): the inhibition of growth at 10 µM was determined as 0% with KB, 8% in [11], 7% with MCF7 and 24% in [12].

The values above are taken from ChEMBL document CHEMBL3352326, “Synthesis of 2,3-di- and 2,2,3-trisubstituted-3-methoxycarbonyl-γ-butyrolactones as potent antitumor agents” (Eur J Med Chem, 2015).
